Laboratory results taken from patent publication US5380668A (University of Utah Research Foundation, priority 1993, dated 1995).
Where a SMILES comes first, the peptide text is derived from it. [ ]: non-standard residue; d: D form. βAla = NCCC(=O)O

Tests used:
[1] = test system: anti-hCG monoclonal antibody directed against a portion of the β-subunit of hCG; assay: EIA binding of BSA-conjugated peptide with anti-hCG monoclonal antibody; conditions: peptide conjugated to BSA, absorbed on 96-well plate; antibody overnight at 4° C; alkaline phosphatase labeled protein A
Description: The peptide was conjugated through its thiol group to BSA using a heterobifunctional cross-linking reagent (succinimidyl 4-(N-maleimidomethyl)cyclohexane-1-carboxylate). The conjugates were first absorbed on the wells of a ninety-six well plate. Nonspecific binding sites on the surface was masked by unlabeled BSA. […] Alkaline phosphatase labeled protein A was used for the color development.

[2] = test system: second monoclonal antibody against hCG

binding with anti-hCG antibody (EIA response) [1] | Krel (relative binding affinity) [2] | Compound
positive results | – | H2 N-Gly-Gly-Arg-Leu-Pro-Gly-Pro-Ser-Asp-Cys-Gly-COOH (H-GGRLPGPSDCG-OH) [EXAMPLE I]
– | 1.6 | C[C@H](NC(=O)[C@H](CO)NC(=O)CNC(=O)[C@H](CO)NC(=O)CN)C(=O)NCC(=O)N1CCC[C@H]1C(=O)N[C@@H](CCCNC(=N)N)C(=O)N[C@@H](Cc1ccc(O)cc1)C(=O)N[C@@H](CC(N)=O)C(=O)N[C@@H](Cc1ccccc1)C(=O)NCC(=O)NCCC(=O)O [SEQ ID NO: 21, Gly--Ser--Gly--Ser--Ala--Gly--Pro--Arg--Tyr--Asn--Phe--Gly--βAla] (H-GSGSAGPRYNFG[βAla]-OH)
– | 1.3 | CC[C@H](C)[C@H](NC(=O)[C@@H]1CCCN1C(=O)CNC(=O)[C@H](C)NC(=O)[C@H](CO)NC(=O)CNC(=O)[C@H](CO)NC(=O)CN)C(=O)N[C@@H](Cc1ccc(O)cc1)C(=O)N[C@@H](CC(=O)O)C(=O)N[C@@H](Cc1ccccc1)C(=O)NCC(=O)NCCC(=O)O [SEQ ID NO: 22, Gly--Ser--Gly--Ser--Ala--Gly--Pro--Ile--Tyr--Asp--Phe--Gly--βAla] (H-GSGSAGPIYDFG[βAla]-OH)
– | 1.0 | CSCC[C@H](NC(=O)[C@H](Cc1ccc(O)cc1)NC(=O)[C@H](CCC(N)=O)NC(=O)[C@@H]1CCCN1C(=O)CNC(=O)[C@H](C)NC(=O)[C@H](CO)NC(=O)CNC(=O)[C@H](CO)NC(=O)CN)C(=O)N[C@@H](Cc1ccccc1)C(=O)NCC(=O)NCCC(=O)O [SEQ ID NO: 23, Gly--Ser--Gly--Ser--Ala--Gly--Pro--Gln--Tyr--Met--Phe--Gly--βAla] (H-GSGSAGPQYMFG[βAla]-OH)
– | 2.0 | CC(C)[C@H](NC(=O)[C@@H]1CCCN1C(=O)CNC(=O)[C@H](C)NC(=O)[C@H](CO)NC(=O)CNC(=O)[C@H](CO)NC(=O)CN)C(=O)N[C@@H](Cc1ccc(O)cc1)C(=O)N[C@@H](CO)C(=O)N[C@@H](Cc1ccccc1)C(=O)NCC(=O)NCCC(=O)O [SEQ ID NO: 20, Gly--Ser--Gly--Ser--Ala--Gly--Pro--Val--Tyr--Ser--Phe--Gly--βAla] (H-GSGSAGPVYSFG[βAla]-OH)
– | 6.6 | CC[C@H](C)[C@H](NC(=O)[C@@H]1CCCN1C(=O)CNC(=O)[C@H](C)NC(=O)[C@H](CO)NC(=O)CNC(=O)[C@H](CO)NC(=O)CN)C(=O)N[C@@H](Cc1ccc(O)cc1)C(=O)N[C@H](C(=O)N[C@@H](Cc1ccccc1)C(=O)NCC(=O)NCCC(=O)O)C(C)C [SEQ ID NO: 19, Gly--Ser--Gly--Ser--Ala--Gly--Pro--Ile--Tyr--Val--Phe--Gly--βAla] (H-GSGSAGPIYVFG[βAla]-OH)
